Measurements as given in ChEMBL document CHEMBL5380820, “Design and Discovery of Novel Cyclic Peptides as EDPs-EBP Interaction Inhibitors for the Treatment of Liver Fibrosis” (J Med Chem, 2023).
Active and inactive are the calls of the source. No cut-off for these calls is given here. Where a SMILES comes first, the peptide text is derived from it. Bridges are numbered along the chain shown (N, C = ends).

Legend:
[1] = test system: LX-2; assay: Antifibrotic activity against TGF-beta induced human LX2 cells assessed as inhibition of alpha-SMA expression by measuring fluorescence intensity relative to control; assay type: functional
[2] = test system: LX-2; assay: Antifibrotic activity against TGF-beta induced human LX2 cells assessed as inhibition of collagen I expression by measuring fluorescence intensity relative to control; assay type: functional
[3] = test system: LX-2; assay: Antifibrotic activity against TGF-beta induced human LX2 cells assessed as inhibition of neuraminidase activity using NA fluorogenic substrate by measuring fluorescence intensity relative to control; assay type: functional
[4] = test system: Mus musculus; assay: Antifibrotic activity in CCl4-induced C57BL/6 mouse model of liver fibrosis assessed as reduction in serum AST level treated at 150 ug/kg, ip daily for 3 weeks; assay type: functional, organism-based; conditions: dose 150.0 µg/kg
[5] = test system: Mus musculus; assay: Antifibrotic activity in CCl4-induced C57BL/6 mouse model of liver fibrosis assessed as reduction in serum ALT level treated at 150 ug/kg, ip daily for 3 weeks; assay type: functional, organism-based; conditions: dose 150.0 µg/kg
[6] = test system: LX-2; assay: Antifibrotic activity against TGF-beta induced human LX2 cells assessed as reduction of alpha-SMA expression derived peptide measured by Western blotting analysis; assay type: functional, cell-based; conditions: dose 0.01-100 µmol/L
[7] = Half life in Sprague-Dawley rat plasma at 0.6 mg/kg, sc by HPLC-MS/MS analysis; assay type: ADME, organism-based
[8] = test system: LX-2; assay: Antifibrotic activity against TGF-beta induced human LX2 cells assessed as reduction of alpha-SMA expression measured at 10 uM for 24 hrs by measuring fluorescence intensity relative to control; assay type: functional; design: scale not given: the % may be the effect or the level left
[9] = Tmax in Sprague-Dawley rat plasma at 0.6 mg/kg, sc by HPLC-MS/MS analysis; assay type: ADME, organism-based
[10] = test system: Mus musculus; assay: Antifibrotic activity in CCl4-induced C57BL/6 mouse model of liver fibrosis assessed as reduction in alpha-SMA level treated at 150 ug/kg, ip daily for 3 weeks by Western blo analysis; assay type: functional, organism-based; conditions: dose 150.0 µg/kg
[11] = test system: LX-2; assay: Antifibrotic activity against TGF-beta induced human LX2 cells assessed as reduction of collagen I expression measured at 10 uM for 24 hrs by measuring fluorescence intensity relative to control; assay type: functional; design: scale not given: the % may be the effect or the level left
[12] = test system: LX2; assay: Inhibition of elastin receptor complex elastin binding protein subunit in human LX2 cells assessed as inhibition of EDP induced PI3K phosphorylation treated at 10 uM for 24 hrs by Western blot analysis; assay type: cell-based
[13] = test system: LX-2; assay: Antifibrotic activity against TGF-beta induced human LX2 cells assessed as reduction of collagen I expression measured at 10 uM for 24 hrs by measuring fluorescence intensity; assay type: functional, cell-based
[14] = test system: LX-2; assay: Antiproliferative activity against TGF-beta induced human LX2 cells assessed as decrease in cell proliferation at 10 uM for 24 hrs by BeyoClick EdU cells proliferation kit with Alex Fluor 488 and DAPI staining analysis; assay type: functional, cell-based
[15] = Stability in mouse serum measured at 0 to 48 hrs by RP-HPLC-MS analysis; assay type: ADME, cell-free; conditions: time 0-48 hrs
[16] = test system: Mus musculus; assay: Antifibrotic activity in CCl4-induced C57BL/6 mouse model of liver fibrosis assessed as reduction of collagen deposition in liver treated at 150 ug/kg, ip daily for 3 weeks fasted for 9 hrs after last dose and sacrificed after 8 hrs of fasting by hematoxylin and eosin staining analysis; assay type: functional, organism-based; conditions: dose 150.0 µg/kg, time 3.033 weeks
[17] = test system: LX-2; assay: Antifibrotic activity against TGF-beta induced human LX2 cells assessed as reduction of alpha-SMA expression measured at 10 uM for 24 hrs by measuring fluorescence intensity; assay type: functional, cell-based
[18] = test system: LX2; assay: Inhibition of elastin receptor complex elastin binding protein subunit in human LX2 cells assessed as inhibition of EDP induced ERK phosphorylation treated at 10 uM for 24 hrs by Western blot analysis; assay type: cell-based
[19] = test system: LX2; assay: Inhibition of elastin receptor complex elastin binding protein subunit in human LX2 cells assessed as inhibition of EDP induced AMPK phosphorylation treated at 10 uM for 24 hrs by Western blot analysis; assay type: cell-based
[20] = test system: LX-2; assay: Inhibition of cell migration in human LX2 cells assessed as decreased cell number in wound area measured at 0 to 24 hrs by wound healing assay; assay type: functional, cell-based; conditions: time 0-24 hrs
[21] = Half life in Sprague-Dawley rat plasma at 0.1 mg/kg, sc by HPLC-MS/MS analysis; assay type: ADME, organism-based
[22] = Tmax in Sprague-Dawley rat plasma at 0.1 mg/kg, sc by HPLC-MS/MS analysis; assay type: ADME, organism-based
[23] = Stability in mouse serum assessed as half life measured by RP-HPLC-MS analysis; assay type: ADME, cell-free
[24] = test system: Mus musculus; assay: Antifibrotic activity in CCl4-induced C57BL/6 mouse model of liver fibrosis assessed as decrease of hydroxyproline content in liver treated at 150 ug/kg ip daily for 3 weeks fasted for 9 hrs after last dose and sacrificed after 8 hrs of fasting by […] analysis; assay type: functional, organism-based; conditions: dose 150.0 µg/kg, time 3.033 weeks

Molecule	inhibition (INH) [1]	inhibition (INH) [3]	Activity [4]	Activity [5]	Activity [6]	Activity [8]	Activity [10]	Activity [11]	inhibition [12]	inhibition (INH) [2]	Activity [14]	Activity [16]	inhibition [18]	inhibition [19]	further results
CC(C)[C@@H]1NC(=O)CNC(=O)[C@@H]2CCCN2C(=O)[C@H](CO)NC(=O)[C@H](C)NC(=O)[C@H](CCC(=O)O)NC(=O)[C@H](CC(=O)O)NC(=O)[C@H](CCC(N)=O)NC(=O)[C@H](C)NC(=O)[C@H](Cc2ccccc2)NC(=O)[C@@H]2CCCN2C(=O)[C@H](CO)NC(=O)CNC(=O)[C@H](C(C)C)NC1=O (cyclo(AQDEASPGVVGSPF))	0.1%	40.9%	Active	Active	inactive	–	–	–	–	–	–	–	–	–	inhibition [2]: inactive
H-VVGSPSAQDEASPL-NH2	27.5%	37%	Active	Active	Dose-Dependent Effect	~50%	Active	~50%	Active	22.5%	Active	Active	Active	Active	half-life [7]: 4.8 min; Tmax [9]: 4.8 min; Activity [13]: Active; Stability [15]: 40%; Activity [17]: Active
CC(C)C[C@@H]1NC(=O)[C@@H]2CCCN2C(=O)[C@H](CO)NC(=O)[C@H](C)NC(=O)[C@H](CCC(=O)O)NC(=O)[C@H](CC(=O)O)NC(=O)[C@H](CCC(N)=O)NC(=O)[C@H](C)NC(=O)[C@H](CO)NC(=O)[C@@H]2CCCN2C(=O)[C@H](CO)NC(=O)CNC(=O)[C@H](C(C)C)NC(=O)[C@H](C(C)C)NC1=O (cyclo(AQDEASPLVVGSPS))	45.3%	79.8%	–	–	–	~50%	Active	~50%	Active	39.7%	Active	Active	Active	Active	inhibition [20]: Active; half-life [21]: 19.8 min; Tmax [22]: 10.2 min; half-life [23]: > 36 h; Activity [24]: Active
CC(C)C[C@H](NC(=O)[C@@H]1CCCN1C(=O)[C@H](CO)NC(=O)[C@H](C)NC(=O)[C@@H]1CCC(=O)N[C@@H](C(C)C)C(=O)N[C@@H](C(C)C)C(=O)NCC(=O)N[C@@H](CO)C(=O)N2CCC[C@H]2C(=O)N[C@@H](CO)C(=O)N[C@@H](C)C(=O)N[C@@H](CCC(N)=O)C(=O)N[C@@H](CC(=O)O)C(=O)N1)C(=O)O (VVGSPSAQDEASPL-OH; lactam N-10)	34.8%	68%	–	–	–	~50%	–	~50%	Active	33.5%	Active	–	Active	Active	–
